Measurements published in publication PMC9317966, “Structure-function analysis of the AMPK activator SC4 and identification of a potent pan AMPK activator” (Biochemical Journal, 2022).

Legend:
Assay in all cases: Radiolabel SAMS kinase assay, GST-AMPK from HEK293T/17 cells immobilised on glutathione-Sepharose
Type in all cases: biochemical
Conditions in all cases: 1 µM compound
human GST-AMPK α1β2γ1 = molecular target: T1, human GST-AMPK α1β2γ1 (Homo sapiens, UniProt O43741+Q13131)
T1 construct: triply transfected with full-length AMPK α1 or α2 (NH2-terminal GST fusion, pDEST27 vector); full-length AMPK α1 or α2 (NH2-terminal GST fusion, pDEST27 vector), β1 or β2 (COOH-terminal FLAG fusion, pcDNA3.1 vector); FLAG (C); made in house; host or cells: HEK293T/17 cells, transient triple transfection
T1 sequence (Q13131 whole entry, the tested form may be a part): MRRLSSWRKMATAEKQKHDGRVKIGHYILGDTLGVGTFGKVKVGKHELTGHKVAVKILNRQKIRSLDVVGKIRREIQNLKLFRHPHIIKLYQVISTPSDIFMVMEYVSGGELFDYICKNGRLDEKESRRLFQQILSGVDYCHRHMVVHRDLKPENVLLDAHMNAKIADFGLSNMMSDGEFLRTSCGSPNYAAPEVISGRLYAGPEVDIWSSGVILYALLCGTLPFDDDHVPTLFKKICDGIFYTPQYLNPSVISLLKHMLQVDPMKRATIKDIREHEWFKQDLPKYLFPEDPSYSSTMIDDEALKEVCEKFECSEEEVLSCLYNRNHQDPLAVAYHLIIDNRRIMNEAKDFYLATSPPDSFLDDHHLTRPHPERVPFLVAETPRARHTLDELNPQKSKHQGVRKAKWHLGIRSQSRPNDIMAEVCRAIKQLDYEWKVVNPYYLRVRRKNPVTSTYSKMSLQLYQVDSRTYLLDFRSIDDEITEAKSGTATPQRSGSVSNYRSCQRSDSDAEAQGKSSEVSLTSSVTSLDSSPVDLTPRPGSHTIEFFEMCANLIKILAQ
T1 sequence (O43741 whole entry, the tested form may be a part): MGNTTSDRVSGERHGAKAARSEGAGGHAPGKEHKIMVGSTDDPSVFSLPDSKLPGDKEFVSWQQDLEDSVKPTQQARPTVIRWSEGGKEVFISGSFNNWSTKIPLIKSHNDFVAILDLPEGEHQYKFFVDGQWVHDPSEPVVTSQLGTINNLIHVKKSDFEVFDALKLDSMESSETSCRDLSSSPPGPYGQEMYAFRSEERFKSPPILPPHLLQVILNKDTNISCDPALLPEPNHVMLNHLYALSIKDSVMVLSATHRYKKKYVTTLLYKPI
T1 sequence (P54619 whole entry partner, the tested form may be a part): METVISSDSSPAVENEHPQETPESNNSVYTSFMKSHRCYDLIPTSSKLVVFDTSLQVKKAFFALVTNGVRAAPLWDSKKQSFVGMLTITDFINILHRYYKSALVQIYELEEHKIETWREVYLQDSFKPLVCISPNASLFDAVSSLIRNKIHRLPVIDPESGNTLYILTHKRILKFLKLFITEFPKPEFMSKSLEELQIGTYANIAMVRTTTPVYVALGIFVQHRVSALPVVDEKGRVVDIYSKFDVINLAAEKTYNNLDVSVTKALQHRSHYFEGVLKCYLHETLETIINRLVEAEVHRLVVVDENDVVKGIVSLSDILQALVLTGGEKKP
Text: (§1) We generated a series of compounds to investigate whether modification of the SC4 2-hydroxybiphenyl LHS fragment affects isoform selectivity, some of which (MSG008-MSG011) are presented in Table 1. We also synthesised compound MSG012 (example I-3-54 [32]), which was reported to activate α2β2γ1 with ∼100-fold greater potency compared with α1β1γ1. MSG012 differs from SC4 by substitution of the 2-hydroxyphenyl LHS fragment with 3-cyclohexen-4-yl-1-carboxylic acid, and 2-methylbenzoic acid RHS fragment with 1-hydroxy-N,N-dimethylcyclohexan-4-yl-1-carboxamide. Our initial screen involved measuring the activity of recombinant human GST-AMPK complexes expressed in HEK293T/17 cells and immobilised on glutathione-Sepharose (Supplementary Figure S1). Enzyme activity was measured by radiolabelling the synthetic SAMS peptide substrate in the absence or presence of 1 µM compound. Consistent with our previous characterisation, SC4 activated α1β1γ1, α2β1γ1 and α2β2γ1 >2.3-fold, and weakly activated α1β2γ1 1.3-fold (Figure 1A). […] The γ isoform had little influence on AMPK activation by MSG011 as most γ2 and γ3 complexes were activated >2.2-fold at 1 µM, with α1β2γ2 being the only exception (1.6-fold activation). […] Accordingly, MSG010, MSG011 and MSG012 can be classified as pan AMPK activators.
(§2) Adherent HEK293T/17 cells at ∼50% confluency were triply transfected with full-length AMPK α1 or α2 (NH2-terminal GST fusion, pDEST27 vector), β1 or β2 (COOH-terminal FLAG fusion, pcDNA3.1 vector), and γ1, γ2 or γ3 (NH2-terminal HA fusion, pMT2 vector) in the presence of FuGENE HD transfection reagent (Promega) as per the manufacturers protocol. Cells were harvested 48 hours post-transfection by first gently washing in ice cold phosphate buffered saline (PBS; Sigma–Aldrich), then scraping in ice cold lysis buffer (50 mM TRIS pH 7.5, 150 mM NaCl, 10% (v/v) glycerol, 50 mM NaF, 5 mM sodium pyrophosphate, 1% (v/v) Triton X-100, cOmplete protease inhibitor cocktail). Lysates were clarified by centrifugation (16 000g, 3 min, 4°C), flash frozen in liquid N2 and stored at −80°C until analysis. For radioactive kinase assays, AMPK was immobilised on glutathione Sepharose 4B resin (GE Healthcare) by incubation with lysates for 1.5 h at 4°C. Following centrifugation (1000g, 3 min, 4°C), the resin was washed twice in purification buffer (50 mM HEPES pH 7.4, 150 mM NaCl, 10% (v/v) glycerol, 0.02% (v/v) Tween-20), once in 50 mM HEPES pH 7.4 with 0.02% (v/v) Tween-20, then resuspended to a 50% slurry with 50 mM HEPES pH 7.4 and 10 µl added to the activity assays. For in solution kinase assays, α1β1γ1 AMPK was eluted from glutathione-Sepharose by incubating with purification buffer supplemented with 40 mM reduced glutathione (Sigma–Aldrich).
(§3) AMPK activity was determined by phosphorylation of the SAMS peptide (Purar Chemicals, sequence: NH2-HMRSAMSGLHLVKRR-COOH) in a 25 µl reaction volume containing 100 µM SAMS peptide, 5 mM MgCl2, 200 µM ATP, [γ-^32P]-ATP (PerkinElmer) and assay buffer (50 mM HEPES pH 7.4, 1 mM DTT and 0.02% (v/v) Tween-20) and purified AMPK. Phosphotransferase activity was conducted at 30°C for 10 min and reactions were quenched by spotting 15 µl onto phosphocellulose ion-exchange chromatography paper (made in-house), followed by repeated washes in 1% H3PO4 (Merck Millipore). Ultima Gold liquid scintillation fluid (5 ml; PerkinElmer) was added to vials containing dried phosphocellulose papers, and the level of ^32P-transfer to the SAMS peptide was determined using a Tri-Carb 2900TR liquid scintillation counter (PerkinElmer).

human GST-AMPK α2β1γ1 = molecular target: T2, human GST-AMPK α2β1γ1 (Homo sapiens, UniProt P54646+Q9Y478)
T2 construct: triply transfected with full-length AMPK α1 or α2 (NH2-terminal GST fusion, pDEST27 vector); full-length AMPK α1 or α2 (NH2-terminal GST fusion, pDEST27 vector), β1 or β2 (COOH-terminal FLAG fusion, pcDNA3.1 vector); FLAG (C); made in house; host or cells: HEK293T/17 cells, transient triple transfection
T2 sequence (P54646 whole entry, the tested form may be a part): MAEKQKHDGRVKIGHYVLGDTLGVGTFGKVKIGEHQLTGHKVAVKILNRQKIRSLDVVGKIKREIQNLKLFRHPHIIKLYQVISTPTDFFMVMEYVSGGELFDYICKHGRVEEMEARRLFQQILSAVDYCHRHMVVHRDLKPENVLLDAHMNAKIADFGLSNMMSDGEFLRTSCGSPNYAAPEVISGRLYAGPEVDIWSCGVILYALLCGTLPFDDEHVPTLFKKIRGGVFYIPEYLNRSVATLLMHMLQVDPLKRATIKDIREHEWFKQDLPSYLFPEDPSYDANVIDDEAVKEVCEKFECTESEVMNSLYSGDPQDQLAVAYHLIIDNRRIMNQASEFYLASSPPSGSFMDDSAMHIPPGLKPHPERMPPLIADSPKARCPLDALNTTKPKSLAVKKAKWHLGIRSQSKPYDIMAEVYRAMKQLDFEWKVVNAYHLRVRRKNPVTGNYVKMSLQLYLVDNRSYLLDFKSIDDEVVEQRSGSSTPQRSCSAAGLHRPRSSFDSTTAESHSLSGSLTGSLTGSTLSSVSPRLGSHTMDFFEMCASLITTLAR
T2 sequence (Q9Y478 whole entry, the tested form may be a part): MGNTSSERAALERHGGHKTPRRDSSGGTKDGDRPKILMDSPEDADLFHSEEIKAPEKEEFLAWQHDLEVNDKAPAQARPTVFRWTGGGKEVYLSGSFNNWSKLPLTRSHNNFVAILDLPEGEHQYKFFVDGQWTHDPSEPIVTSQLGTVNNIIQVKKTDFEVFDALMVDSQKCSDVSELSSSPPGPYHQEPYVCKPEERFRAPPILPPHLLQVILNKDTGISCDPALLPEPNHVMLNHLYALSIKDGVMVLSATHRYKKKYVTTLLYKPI
T2 sequence (P54619 whole entry partner, the tested form may be a part): as the sequence (P54619 whole entry partner, the tested form may be a part) above
Text: as §1, §2, §3

human GST-AMPK α2β2γ1 = molecular target: T3, human GST-AMPK α2β2γ1 (Homo sapiens, UniProt O43741+P54646)
T3 construct: triply transfected with full-length AMPK α1 or α2 (NH2-terminal GST fusion, pDEST27 vector); full-length AMPK α1 or α2 (NH2-terminal GST fusion, pDEST27 vector), β1 or β2 (COOH-terminal FLAG fusion, pcDNA3.1 vector); FLAG (C); made in house; host or cells: HEK293T/17 cells, transient triple transfection
T3 sequence (P54646 whole entry, the tested form may be a part): as the sequence (P54646 whole entry, the tested form may be a part) above
T3 sequence (O43741 whole entry, the tested form may be a part): as the sequence (O43741 whole entry, the tested form may be a part) above
T3 sequence (P54619 whole entry partner, the tested form may be a part): as the sequence (P54619 whole entry partner, the tested form may be a part) above
Text: as §1, §2, §3

- fold AMPK activation relative to vehicle (human GST-AMPK α1β2γ1): > 2.2 fold
- fold AMPK activation relative to vehicle (human GST-AMPK α2β1γ1): > 2.2 fold
- fold AMPK activation relative to vehicle (human GST-AMPK α2β2γ1): > 2.2 fold
Structure (SMILES): CC(=O)NC1CC=C(c2ccc(-c3nc4nc(Oc5ccc(C)c(C(=O)O)c5)[nH]c4cc3Cl)cc2)CC1 (stereo not drawn) [MSG011, 5-((5-(4′-Acetamido-2′,3′,4′,5′-tetrahydro-[1,1′-biphenyl]-4-yl)-6-chloro-1H-imidazo[4,5-b]pyridin-2-yl)oxy)-2-methylbenzoic acid]
